Measurements reported in patent US20220323761A1, “METHOD FOR INDUCING HIBERNATION-LIKE STATE AND DEVICE SAME” (University of Tsukuba, priority 2019, published 2022).

How the values were obtained:
Assay type in all cases: in vivo
[1] = tested on: Q-neurons in the AVPe, MPA and Pe; test: Fos immunostaining of brain sections of Q-hM3D mice after CNO IP; settings: 90 minutes after CNO IP
Protocol: Each mouse was deeply anesthetized with isoflurane, transcardially perfused with 10% sucrose in water, and then perfused with ice-cooled 4% paraformaldehyde (4% PFA) in a 0.1 M phosphate buffer having a pH of 7.4, and the brain was removed. After being left in the 4% PFA overnight at 4° C., the brain was fixed, incubated overnight at 4° C. in a 0.1 M phosphate buffered saline (PBS) having a pH of 7.4, in 30% sucrose, immersed in a Tissuue-Tek O.C.T. compound (Sakura) in a cryomold, and frozen at −80° C. until sectioned. With the use of a cryostat (CM1860, Leica), the brain was sliced into coronal sections in four equal series every 50 μm, collected in a 6-well plate filled with ice-cooled PBS, and washed three times with PBS at room temperature (RT). Unless otherwise specified, the following incubation process was carried out while gently shaking on an orbital shaker. […]
The primary antibodies used in this research were rabbit anti-cFos (1:4000, ABE457, Millipore), goat anti-mCherry (1:15000, AB0040-200, SICGEN), rat anti-GFP (1:5000, 04404-84, NACALAI TESQUE), mouse anti-TH (1:1000, sc-25269, Santa Cruz Biotechnology), mouse anti-orexin A (1:200, sc-80263, Santa Cruz Biotechnology), and rabbit anti-MCH (1:2000, M8440, SIGMA). […] Brain regions were determined using a mouse brain map from Paxinos and Franklin^36.

[2] = biological target: T1, hM3Dq in iCre-positive neurons (Homo sapiens, UniProt P20309, A239G/Y149C); test: Infrared thermography and behaviour of Qrfp-iCre; Rosa26^dreaddm3 mice after IP CNO
T1 construct: mCherry (C); expressed in transfected cells; host or cells: iCre-expressing neurons of Qrfp-iCre; Rosa26^dreaddm3 mice (CAG-hM3Dq-mCherry at the Rosa26 locus, in vivo)
Excerpt: For thermographic analysis, the mice were inserted into an experiment cage (25×15×10 cm) and monitored using an infrared thermal imaging camera (InfReC R500 EX; Nippon Avionics) placed 30 cm above the cage floor. To clearly detect the surface temperature, the back hair was removed using hair clippers one day prior to the start of the experiment. Thermograms of DREADD and optogenetic experiments were collected at 0.5 Hz and 1 Hz, respectively, and analyzed using the InfReC Analyzer NS9500 Professional software (Nippon Avionics). The highest temperature of one frame was used as the TS of the animal (FIG. 1d).
(§1) The Dreadd agonist CNO (clozapine N-oxide, Abcam, ab141704) was dissolved in physiological saline at a dose of 100 μg/mL, and the solution was frozen at −20° C. The CNO solution was thawed on site and then administered to each mouse intraperitoneally at a dose of 1 mg/kg. The adenosineAl receptor agonist CHA (N^6-cyclohexyl adenosine, Sigma-Aldrich, C9901) was dissolved in physiological saline at a concentration of 250 μg/mL, and the solution was administered intraperitoneally to each mouse at a dose of 2.5 mg/kg.

hM3Dq in Q-neurons = biological target: T2, hM3Dq in Q-neurons (Homo sapiens, UniProt P20309, A239G/Y149C); test: Estimation of thermoregulatory parameters G, H and TR during CNO-induced QIH in Q-hM3D mice
T2 construct: mCherry (C); expressed in transfected cells; host or cells: QRFP-producing (Q) neurons of Qrfp-iCre mice transduced in vivo with AAV10-EF1α-DIO-hM3Dq-mCherry
Excerpt: In order to record the core body temperature, oxygen consumption amount, EEG, ECG, and respiratory patterns, each animal was housed in a temperature controlled chamber (HC-100, Shin Factory or LP-400P-AR, Nippon Medical & Chemical Instruments Co., Ltd.). In order to continuously record the TB (intraperitoneal temperature), a telemetry temperature sensor (TA11TA-F10, DSI) was implanted into the animal's abdominal cavity under general inhalation anesthesia at least 7 days prior to the recording. The VO 2 and carbon dioxide discharge rate (VCO2) of the animal were continuously recorded using a respiratory gas analyzer (ARCO-2000 mass spectrometer, ARCO System). The respiratory quotient was calculated from the ratio of VCO2/VO2.
as §1
To evaluate the thermoregulatory system under QIH and normal conditions, the heat loss and heat production of the animals were described in a hierarchical multilayer model (FIG. 3c to FIG. 3k, code folder QIH_GTRH). Three parameters of G, TR and H under two metabolic conditions, that is, normal and QIH conditions, were estimated from a metabolically stable state of the animals at various TAs. The detailed method has been previously described^3. In summary, a linear model formed from the controllable parameter TA and the observable parameters TB and VO2 was fitted to the experimental results for both TB and VO2 using TA as a predictor having normal distribution noise. Next, G, TR, and H were estimated using the post-distribution of the slope and intercept coefficients for each model. […]

T2 sequence (P20309 whole entry Y149C/A239G, the tested form may be a part): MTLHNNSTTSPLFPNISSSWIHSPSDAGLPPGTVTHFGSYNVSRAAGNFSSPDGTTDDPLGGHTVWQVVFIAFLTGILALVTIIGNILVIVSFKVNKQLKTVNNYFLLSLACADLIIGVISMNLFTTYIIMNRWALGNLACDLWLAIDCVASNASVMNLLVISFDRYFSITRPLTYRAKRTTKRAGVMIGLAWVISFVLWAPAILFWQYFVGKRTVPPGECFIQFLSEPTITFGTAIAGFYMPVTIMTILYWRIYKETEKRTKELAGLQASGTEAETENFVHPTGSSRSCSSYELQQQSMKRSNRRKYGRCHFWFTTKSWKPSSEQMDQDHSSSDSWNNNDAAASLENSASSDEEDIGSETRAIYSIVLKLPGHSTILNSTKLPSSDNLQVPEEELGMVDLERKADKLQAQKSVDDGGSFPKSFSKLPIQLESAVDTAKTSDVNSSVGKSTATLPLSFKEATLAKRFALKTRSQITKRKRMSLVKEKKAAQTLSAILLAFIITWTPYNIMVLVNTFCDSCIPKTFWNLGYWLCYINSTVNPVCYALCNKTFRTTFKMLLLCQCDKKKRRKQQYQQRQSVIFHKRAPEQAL
T1 sequence (P20309 whole entry Y149C/A239G): as the sequence (P20309 whole entry Y149C/A239G, the tested form may be a part) above

## C[N+]1([O-])CCN(C2=Nc3cc(Cl)ccc3Nc3ccccc32)CC1 [CNO, clozapine N-oxide]
[1]
  in vivo excitation of neurons (mCherry and Fos double positive): confirmed
[2]
  duration of TS reduction: approximately 12 hours
  onset of TS reduction after administration: approximately 5 minutes
[2]; intraperitoneal CNO
  onset of sustained immobility after injection: approximately 30 minutes
[2]; thermography camera
  surface body temperature (TS) effect: significantly sustained hypothermia
hM3Dq in Q-neurons; QIH versus normal state
  reduction in H at each median: 95.3%
hM3Dq in Q-neurons; eleven hours after IP injection, TA 8-32° C.
  TB and VO2 versus control at every TA: low TB and VO2
hM3Dq in Q-neurons; normal versus QIH
  difference in TR at each median: 8.41 °C
